Laboratory results: US8304412B2, “Cyclically substituted 3,5-dicyano-2-thiopyridines and use thereof” (Bayer Intellectual Property GmbH, priority 2006, dated 2012)
pEC50: −log10 of the molar value. Each block holds one compound with its values, some of them ahead of it.

Columns and labels:
Assay type in all cases: cell-based
adenosine A2b receptor = target: T1, adenosine A2b receptor (Homo sapiens, UniProt P29275); test: Indirect determination of adenosine agonism by gene expression (luciferase), A2b cells; conditions: stably transfected CHO cells; 50% of maximum luciferase stimulation
T1 construct: expressed in transfected cells; host or cells: CHO (Chinese Hamster Ovary)
T1 sequence (P29275 1-332): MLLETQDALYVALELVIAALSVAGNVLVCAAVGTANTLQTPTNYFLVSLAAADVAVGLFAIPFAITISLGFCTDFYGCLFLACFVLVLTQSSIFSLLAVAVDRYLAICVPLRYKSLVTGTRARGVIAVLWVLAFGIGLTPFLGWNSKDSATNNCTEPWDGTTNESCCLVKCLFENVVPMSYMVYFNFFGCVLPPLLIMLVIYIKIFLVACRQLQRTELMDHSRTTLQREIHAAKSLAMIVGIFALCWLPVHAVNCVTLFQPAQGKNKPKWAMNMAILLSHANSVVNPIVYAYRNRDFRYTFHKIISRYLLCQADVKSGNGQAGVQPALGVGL
Text: (§1) B-1. Indirect Determination of the Adenosine Agonism by Way of Gene Expression
(§2) Cells of the CHO (Chinese Hamster Ovary) permanent cell line are transfected stably with the cDNA for the adenosine receptor subtypes A1, A2a and A2b. The adenosine A1 receptors are coupled to the adenylate cyclase by way of Gi proteins, while the adenosine A2a and A2b receptors are coupled by way of Gs proteins. In correspondence with this, the formation of cAMP in the cell is inhibited or stimulated, respectively. After that, expression of the luciferase is modulated by way of a cAMP-dependent promoter. The luciferase test is optimized, with the aim of high sensitivity and reproducibility, low variance and good suitability for implementation on a robot system, by varying several test parameters, such as cell density, duration of the growth phase and the test incubation, forskolin concentration and medium composition. The following test protocol is used for pharmacologically characterizing cells and for the robot-assisted substance screening:
(§3) The stock cultures are grown, at 37° C. and under 5% CO2, in DMEM/F12 medium containing 10% FCS (fetal calf serum) and in each case split 1:10 after 2-3 days. The test cultures are seeded in 384-well plates with 2000 cells per well and grown at 37° C. for approx. 48 hours. The medium is then replaced with a physiological sodium chloride solution (130 mM sodium chloride, 5 mM potassium chloride, 2 mM calcium chloride, 20 mM HEPES, 1 mM magnesium chloride hexahydrate, 5 mM sodium bicarbonate, pH 7.4). The substances to be tested, which are dissolved in DMSO, are pipetted into the test cultures (maximum final concentration of DMSO in the test mixture: 0.5%) in a dilution series of from 5×10^−11M to 3×10^−6M (final concentration). 10 minutes later, forskolin is added to the A1 cells and all the cultures are subsequently incubated at 37° C. for four hours. After that, 35 μl of a solution which is composed of 50% lysis reagent (30 mM disodium hydrogenphosphate, 10% glycerol, 3% TritonX100, 25 mM TrisHCl, 2 mM dithiotreitol (DTT), pH 7.8) and 50% luciferase substrate solution (2.5 mM ATP, 0.5 mM luciferin, 0.1 mM coenzyme A, 10 mM tricine, 1.35 mM magnesium sulfate, 15 mM DTT, pH 7.8) are added to the test cultures, which are shaken for approx. 1 minute and the luciferase activity is measured using a camera system. The EC50 values are determined, i.e., the concentrations at which 50% of the luciferase answer is inhibited in the case of the A1 cell, and, respectively, 50% of the maximum stimulation with the corresponding substance is achieved in the case of the A2b and A2a cells. […] Pharmacol., 357 (1998), 1-9).
(§4) Table 1 below lists the EC50 values of representative working examples for the receptor stimulation on adenosine A1, A2a and A2b receptor subtypes: […]

adenosine A2a receptor = target: T2, adenosine A2a receptor (Homo sapiens, UniProt P29274); test: Indirect determination of adenosine agonism by gene expression (luciferase), A2a cells; conditions: stably transfected CHO cells; 50% of maximum luciferase stimulation
T2 construct: expressed in transfected cells; host or cells: CHO (Chinese Hamster Ovary)
T2 sequence (P29274 whole entry): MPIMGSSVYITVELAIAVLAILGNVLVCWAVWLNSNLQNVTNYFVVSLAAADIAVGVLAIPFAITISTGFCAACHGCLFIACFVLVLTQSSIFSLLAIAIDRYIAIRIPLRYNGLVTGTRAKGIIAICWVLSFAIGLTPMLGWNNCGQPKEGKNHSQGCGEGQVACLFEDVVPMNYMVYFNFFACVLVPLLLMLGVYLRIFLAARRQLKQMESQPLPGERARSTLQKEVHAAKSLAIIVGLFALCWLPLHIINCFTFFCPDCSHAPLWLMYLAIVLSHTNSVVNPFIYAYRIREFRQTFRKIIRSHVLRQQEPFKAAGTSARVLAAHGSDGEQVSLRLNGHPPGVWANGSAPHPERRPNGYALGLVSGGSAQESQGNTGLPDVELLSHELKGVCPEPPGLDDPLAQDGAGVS
Text: as §1, §2, §3, §4

adenosine A1 receptor = target: T3, adenosine A1 receptor (Homo sapiens, UniProt P30542); test: Indirect determination of adenosine agonism by gene expression (luciferase), A1 cells; conditions: 1 μM forskolin; stably transfected CHO cells; 50% inhibition of luciferase answer
T3 construct: expressed in transfected cells; host or cells: CHO (Chinese Hamster Ovary)
T3 sequence (P30542 1-326): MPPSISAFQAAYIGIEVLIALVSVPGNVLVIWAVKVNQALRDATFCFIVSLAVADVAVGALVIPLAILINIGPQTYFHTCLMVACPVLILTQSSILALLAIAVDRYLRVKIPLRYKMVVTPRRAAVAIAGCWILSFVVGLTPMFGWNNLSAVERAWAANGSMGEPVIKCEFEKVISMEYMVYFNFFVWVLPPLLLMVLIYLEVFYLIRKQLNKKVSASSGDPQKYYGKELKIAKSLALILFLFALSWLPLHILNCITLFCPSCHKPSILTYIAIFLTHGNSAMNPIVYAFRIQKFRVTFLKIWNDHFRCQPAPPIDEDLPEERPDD
Text: as §1, §2, §3, §4

pEC50 (adenosine A2b receptor): < 5.52
pEC50 (adenosine A2a receptor): < 5.52
EC50 (adenosine A1 receptor): 106 nM
SMILES: Cc1sc(-c2ccc(Cl)cc2)nc1CSc1nc(N)c(C#N)c(C2CCCCC2)c1C#N [Example 76]

pEC50 (adenosine A2b receptor): 6.17
pEC50 (adenosine A2a receptor): 6.42
EC50 (adenosine A1 receptor): 10 nM
SMILES: N#Cc1c(N)nc(SCc2csc(-c3ccc(Cl)cc3)n2)c(C#N)c1C1CCCCO1 (single isomer, unassigned; ent-2) [Example 15, ent-2-Amino-6-({[2-(4-chlorophenyl)-1,3-thiazol-4-yl]methyl}thio)-4-(tetrahydro-2H-pyran-2-yl)-pyridine-3,5-dicarbonitrile]

pEC50 (adenosine A2b receptor): < 5.52
pEC50 (adenosine A2a receptor): < 5.52
EC50 (adenosine A1 receptor): 6.8 nM
SMILES: N#Cc1c(N)nc(SCc2cccc(C(=O)O)c2)c(C#N)c1C1CCCCO1 (stereo not drawn) [Example 51]

pEC50 (adenosine A2b receptor): 6.25
pEC50 (adenosine A2a receptor): 5.90
EC50 (adenosine A1 receptor): 0.8 nM
SMILES: N#Cc1c(N)nc(SCc2csc(-c3ccc(Cl)cc3)n2)c(C#N)c1[C@H]1CC[C@H](O)CC1 [Example 3, 2-Amino-6-({[2-(4-chlorophenyl)-1,3-thiazol-4-yl]methyl}thio)-4-(trans-4-hydroxycyclohexyl)-pyridine-3,5-dicarbonitrile]

pEC50 (adenosine A2b receptor): 6.07
pEC50 (adenosine A2a receptor): < 5.52
EC50 (adenosine A1 receptor): 9.5 nM
SMILES: N#Cc1cnc(SCc2csc(-c3ccc(C(=O)O)cc3)n2)c(C#N)c1C1CCCOC1 (racemic) [Example 65, rac-4-[4-({[3,5-Dicyano-4-(tetrahydro-2H-pyran-3-yl)pyridin-2-yl]sulfanyl}methyl)-1,3-thiazol-2-yl]benzoic acid]

pEC50 (adenosine A2b receptor): 6.02
pEC50 (adenosine A2a receptor): < 5.52
EC50 (adenosine A1 receptor): 11 nM
SMILES: N#Cc1c(N)nc(SCc2coc(-c3ccc(Cl)cc3)n2)c(C#N)c1C1CCCOC1 (stereo not drawn) [Example 58, 2-Amino-6-({[2-(4-chlorophenyl)-1,3-oxazol-4-yl]methyl}sulfanyl)-4-(tetrahydro-2H-pyran-3-yl)-pyridine-3,5-dicarbonitrile]

pEC50 (adenosine A2b receptor): 7.66
pEC50 (adenosine A2a receptor): 6.65
EC50 (adenosine A1 receptor): 0.08 nM
SMILES: N#Cc1c(N)nc(SCc2cccc(C(N)=O)c2)c(C#N)c1C1CCCCC1 [Example 70]

pEC50 (adenosine A2b receptor): 7.12
pEC50 (adenosine A2a receptor): 6.21
EC50 (adenosine A1 receptor): 0.4 nM
SMILES: N#Cc1c(N)nc(SCc2csc(-c3ccc(C(=O)O)cc3)n2)c(C#N)c1C1CCCCO1 (single isomer, unassigned) [Example 23]

More lines, now with the values behind:

SMILES: N#Cc1c(N)nc(SCc2coc(-c3ccc(F)c(Cl)c3)n2)c(C#N)c1[C@H]1CC[C@@H](O)CC1 [Example 78]
pEC50 (adenosine A2b receptor): < 5.52
pEC50 (adenosine A2a receptor): < 5.52
EC50 (adenosine A1 receptor): 17 nM

SMILES: Cc1nc(SCc2csc(-c3ccc(C(=O)O)cc3)n2)c(C#N)c(C2CCCCO2)c1C#N (single isomer, unassigned; (+)) [Example 56, (+)-4-[4-({[3,5-Dicyano-6-methyl-4-(tetrahydro-2H-pyran-2-yl)pyridin-2-yl]sulfanyl}methyl)-1,3-thiazol-2-yl]benzoic acid]
pEC50 (adenosine A2b receptor): 7.29
pEC50 (adenosine A2a receptor): < 5.52
EC50 (adenosine A1 receptor): 0.8 nM

SMILES: N#Cc1c(N)nc(SCc2csc(-c3ccc(Cl)cc3)n2)c(C#N)c1C1CCCCC1 [Example 29, 2-Amino-6-({[2-(4-chlorophenyl)-1,3-thiazol-4-yl]methyl}thio)-4-cyclohexylpyridine-3,5-dicarbonitrile]
pEC50 (adenosine A2b receptor): 6.46
pEC50 (adenosine A2a receptor): < 5.52
EC50 (adenosine A1 receptor): 3.8 nM

SMILES: N#Cc1c(N)nc(SCc2csc(-c3ccc(Cl)cc3)n2)c(C#N)c1[C@H]1CC[C@@H](O)CC1 [Example 4]
pEC50 (adenosine A2b receptor): 6.49
pEC50 (adenosine A2a receptor): 5.96
EC50 (adenosine A1 receptor): 2.9 nM

SMILES: N#Cc1c(N)nc(SCc2csc(-c3ccc(C(=O)O)cc3)n2)c(C#N)c1C1CCCOC1 (single isomer, unassigned; (+)) [Example 62, (+)-4-[4-({[6-Amino-3,5-dicyano-4-(tetrahydro-2H-pyran-3-yl)pyridin-2-yl]sulfanyl}methyl)-1,3-thiazol-2-yl]benzoic acid]
pEC50 (adenosine A2b receptor): < 5.52
pEC50 (adenosine A2a receptor): < 5.52
EC50 (adenosine A1 receptor): 0.06 nM

SMILES: CN1CCN(CCCNc2nc(SCc3csc(-c4ccc(Cl)cc4)n3)c(C#N)c(C3CCCCC3)c2C#N)CC1 [Example 35]
pEC50 (adenosine A2b receptor): < 5.52
pEC50 (adenosine A2a receptor): 5.83
EC50 (adenosine A1 receptor): 68 nM

SMILES: N#Cc1c(N)nc(SCc2csc(-c3ccc(Cl)cc3)n2)c(C#N)c1C1CCN(C(=O)CO)CC1 [Example 9, 2-Amino-6-({[2-(4-chlorophenyl)-1,3-thiazol-4-yl]methyl}thio)-4-(1-glycoloylpiperidin-4-yl)-pyridine-3,5-dicarbonitrile]
pEC50 (adenosine A2b receptor): 6.10
pEC50 (adenosine A2a receptor): < 5.52
EC50 (adenosine A1 receptor): 8.9 nM
